Like-named read-outs stand apart in the source and are kept apart here.
Columns and labels:
[1] = according to FDA Summary Basis of Approval; cited from earlier work
[2] = cited from earlier work
[3] = in vivo; cited from earlier work
[4] = Dog urine excretion: quantity of zoledronic acid in urine over collection intervals (LC/MS/MS); type: in vivo, Beagle dogs; details: Leg 38, 0.12 mg/kg IV, saline solution
[5] = Dog PK study: zoledronic acid in serum after IV or oral capsule dosing, enteric or non-enteric coated, with or without excess coformer (LC/MS/MS); type: in vivo, Beagle dogs; details: beagle
Text: This can be attributed to the fact that both animals have historically been used in the safety evaluation and PK screening studies and are recommended by appropriate regulatory agencies. […] Additional tests included ID administration in rats and administration of enteric coated capsules in dogs.
USA. Some animals have surgical catheters (jugular vein and intraduodenum) were implanted to the animals prior to the studies. Beagle dogs from Marshall Farms, N.Y., USA, weighing from (9-12 kg) were used in the studies presented herein. Surgical catheters (jugular vein) were implanted prior to the studies.
The dose volume of each dog was adjusted based upon the average weight of the dog. • ii. […]
Blood samples were placed without the use of an anticoagulant and allowed to sit at room temperature for approximately 30 minutes. Samples were then centrifuged at a temperature of 4° C., at a speed of 13,000 rpm, for 5 minutes. Serum was collected and split into two aliquots and stored frozen (−80° C.) until analysis.
In this study, capsules of particulate materials (zoledronic:DL-lysine:water complex and excess pure DL-lysine).

O=P(O)(O)C(O)(Cn1ccnc1)P(=O)(O)O [Zoledronic acid, (1-hydroxy-2-imidazol-1-yl-1-phosphono-ethyl)phosphonic acid]
oral bioavailability [1]: approximately 1% | solubility ([2]; in 0.1 N HCl solution): sparingly soluble | solubility ([2]; in 0.1 N NaOH): freely soluble | solubility ([2]; in various organic solvents): practically insoluble | solubility ([2]; in water): sparingly soluble | gastric and intestinal irritations [3]: severe gastric and intestinal irritations | Average quantity of zoledronic acid in urine excretion of 4 dogs ([4]; interval 0-4 h): 242050 ng | Average quantity of zoledronic acid in urine excretion of 4 dogs ([4]; interval 4-8 h): 21165 ng | Average quantity of zoledronic acid in urine excretion of 4 dogs ([4]; interval 8-12 h): 10925 ng | Average quantity of zoledronic acid in urine excretion of 4 dogs ([4]; interval 12-24 h): 43700 ng | Average quantity of zoledronic acid in urine excretion of 4 dogs ([4]; interval 24-96 h): 263151 ng | bioavailability ([5]; Leg 37: 63.1 mg Zoledronic, DL-lysine, and water complex with 1965.7 mg DL-lysine monohydrate, PO gelatin capsules): > 8% | concentration at 0 h ([5]; intravenous, 0.12 mg/kg, Leg 18, 15 min IV infusion 0.12 mg/kg, saline solution, Time 0 hour (pre-dose), read-out: Average serum concentration of 5 dogs): 0 ng/mL | concentration at 5 min ([5]; intravenous, 0.12 mg/kg, Leg 18, 15 min IV infusion 0.12 mg/kg, saline solution, Time 0.0833 hour, read-out: Average serum concentration of 5 dogs): 309 ng/mL | concentration at 10 min ([5]; intravenous, 0.12 mg/kg, Leg 18, 15 min IV infusion 0.12 mg/kg, saline solution, Time 0.1667 hour, read-out: Average serum concentration of 5 dogs): 525 ng/mL | concentration at 0.25 h ([5]; intravenous, 0.12 mg/kg, Leg 18, 15 min IV infusion 0.12 mg/kg, saline solution, Time 0.25 hour, read-out: Average serum concentration of 5 dogs): 717 ng/mL | concentration at 25 min ([5]; intravenous, 0.12 mg/kg, Leg 18, 15 min IV infusion 0.12 mg/kg, saline solution, Time 0.4167 hour, read-out: Average serum concentration of 5 dogs): 392 ng/mL | concentration at 0.5 h ([5]; intravenous, 0.12 mg/kg, Leg 18, 15 min IV infusion 0.12 mg/kg, saline solution, Time 0.5 hour, read-out: Average serum concentration of 5 dogs): 323 ng/mL | concentration at 0.75 h ([5]; intravenous, 0.12 mg/kg, Leg 18, 15 min IV infusion 0.12 mg/kg, saline solution, Time 0.75 hour, read-out: Average serum concentration of 5 dogs): 202 ng/mL | concentration at 1 h ([5]; intravenous, 0.12 mg/kg, Leg 18, 15 min IV infusion 0.12 mg/kg, saline solution, Time 1 hour, read-out: Average serum concentration of 5 dogs): 133 ng/mL | concentration at 1.25 h ([5]; intravenous, 0.12 mg/kg, Leg 18, 15 min IV infusion 0.12 mg/kg, saline solution, Time 1.25 hour, read-out: Average serum concentration of 5 dogs): 93.2 ng/mL | concentration at 1.5 h ([5]; intravenous, 0.12 mg/kg, Leg 18, 15 min IV infusion 0.12 mg/kg, saline solution, Time 1.5 hour, read-out: Average serum concentration of 5 dogs): 69.1 ng/mL | concentration at 2 h ([5]; intravenous, 0.12 mg/kg, Leg 18, 15 min IV infusion 0.12 mg/kg, saline solution, Time 2 hour, read-out: Average serum concentration of 5 dogs): 38.4 ng/mL | concentration at 4 h ([5]; intravenous, 0.12 mg/kg, Leg 18, 15 min IV infusion 0.12 mg/kg, saline solution, Time 4 hour, read-out: Average serum concentration of 5 dogs): 9.14 ng/mL | concentration at 8 h ([5]; intravenous, 0.12 mg/kg, Leg 18, 15 min IV infusion 0.12 mg/kg, saline solution, Time 8 hour, read-out: Average serum concentration of 5 dogs): 3.24 ng/mL | concentration at 24 h ([5]; intravenous, 0.12 mg/kg, Leg 18, 15 min IV infusion 0.12 mg/kg, saline solution, Time 24 hour, read-out: Average serum concentration of 5 dogs): 1.21 ng/mL | concentration at 0.0333 hour ([5]; iv, 0.05 mg/kg, zoledronic acid in dog serum, Leg 1, IV 0.05 mg/kg, saline solution, Time 0.0333 hour, read-out: Average serum concentration of 5 dogs): 413 ng/mL | concentration at 0.0833 hour ([5]; iv, 0.05 mg/kg, zoledronic acid in dog serum, Leg 1, IV 0.05 mg/kg, saline solution, Time 0.0833 hour, read-out: Average serum concentration of 5 dogs): 312 ng/mL | concentration at 0.1667 hour ([5]; iv, 0.05 mg/kg, zoledronic acid in dog serum, Leg 1, IV 0.05 mg/kg, saline solution, Time 0.1667 hour, read-out: Average serum concentration of 5 dogs): 229 ng/mL | concentration at 0.25 hour ([5]; iv, 0.05 mg/kg, zoledronic acid in dog serum, Leg 1, IV 0.05 mg/kg, saline solution, Time 0.25 hour, read-out: Average serum concentration of 5 dogs): 179 ng/mL | concentration at 0.75 hour ([5]; iv, 0.05 mg/kg, zoledronic acid in dog serum, Leg 1, IV 0.05 mg/kg, saline solution, Time 0.75 hour, read-out: Average serum concentration of 5 dogs): 75.9 ng/mL | concentration at 1 hour ([5]; iv, 0.05 mg/kg, zoledronic acid in dog serum, Leg 1, IV 0.05 mg/kg, saline solution, Time 1 hour, read-out: Average serum concentration of 5 dogs): 56.1 ng/mL | concentration at 1.5 hour ([5]; iv, 0.05 mg/kg, zoledronic acid in dog serum, Leg 1, IV 0.05 mg/kg, saline solution, Time 1.5 hour, read-out: Average serum concentration of 5 dogs): 30.4 ng/mL | concentration at 2 hour ([5]; iv, 0.05 mg/kg, zoledronic acid in dog serum, Leg 1, IV 0.05 mg/kg, saline solution, Time 2 hour, read-out: Average serum concentration of 5 dogs): 17.6 ng/mL | concentration at 4 hour ([5]; iv, 0.05 mg/kg, zoledronic acid in dog serum, Leg 1, IV 0.05 mg/kg, saline solution, Time 4 hour, read-out: Average serum concentration of 5 dogs): 4.29 ng/mL | concentration at 8 hour ([5]; iv, 0.05 mg/kg, zoledronic acid in dog serum, Leg 1, IV 0.05 mg/kg, saline solution, Time 8 hour, read-out: Average serum concentration of 5 dogs): 1.13 ng/mL | concentration at 24 hour ([5]; iv, 0.05 mg/kg, zoledronic acid in dog serum, Leg 1, IV 0.05 mg/kg, saline solution, Time 24 hour, read-out: Average serum concentration of 5 dogs): 0 ng/mL | concentration at 48 hour ([5]; iv, 0.05 mg/kg, zoledronic acid in dog serum, Leg 1, IV 0.05 mg/kg, saline solution, Time 48 hour, read-out: Average serum concentration of 5 dogs): 0 ng/mL | concentration at 0 h ([5]; iv, 0.12 mg/kg, Leg 38, 0.12 mg/kg IV, saline solution, 0 h, read-out: Average serum concentration of 4 dogs): 0 ng/mL | concentration at 5 min ([5]; iv, 0.12 mg/kg, Leg 38, 0.12 mg/kg IV, saline solution, 5 min, read-out: Average serum concentration of 4 dogs): 288 ng/mL | concentration at 10 min ([5]; iv, 0.12 mg/kg, Leg 38, 0.12 mg/kg IV, saline solution, 10 min, read-out: Average serum concentration of 4 dogs): 542 ng/mL | concentration at 0.25 h ([5]; iv, 0.12 mg/kg, Leg 38, 0.12 mg/kg IV, saline solution, 0.25 h, read-out: Average serum concentration of 4 dogs): 711 ng/mL | concentration at 20 min ([5]; iv, 0.12 mg/kg, Leg 38, 0.12 mg/kg IV, saline solution, 20 min, read-out: Average serum concentration of 4 dogs): 529 ng/mL | concentration at 25 min ([5]; iv, 0.12 mg/kg, Leg 38, 0.12 mg/kg IV, saline solution, 25 min, read-out: Average serum concentration of 4 dogs): 406 ng/mL | concentration at 0.5 h ([5]; iv, 0.12 mg/kg, Leg 38, 0.12 mg/kg IV, saline solution, 0.5 h, read-out: Average serum concentration of 4 dogs): 358 ng/mL | concentration at 0.75 h ([5]; iv, 0.12 mg/kg, Leg 38, 0.12 mg/kg IV, saline solution, 0.75 h, read-out: Average serum concentration of 4 dogs): 240 ng/mL | concentration at 1 h ([5]; iv, 0.12 mg/kg, Leg 38, 0.12 mg/kg IV, saline solution, 1 h, read-out: Average serum concentration of 4 dogs): 174 ng/mL | concentration at 1.25 h ([5]; iv, 0.12 mg/kg, Leg 38, 0.12 mg/kg IV, saline solution, 1.25 h, read-out: Average serum concentration of 4 dogs): 121 ng/mL | concentration at 1.5 h ([5]; iv, 0.12 mg/kg, Leg 38, 0.12 mg/kg IV, saline solution, 1.5 h, read-out: Average serum concentration of 4 dogs): 90.6 ng/mL | concentration at 2 h ([5]; iv, 0.12 mg/kg, Leg 38, 0.12 mg/kg IV, saline solution, 2 h, read-out: Average serum concentration of 4 dogs): 55.7 ng/mL | concentration at 4 h ([5]; iv, 0.12 mg/kg, Leg 38, 0.12 mg/kg IV, saline solution, 4 h, read-out: Average serum concentration of 4 dogs): 15.1 ng/mL | concentration at 8 h ([5]; iv, 0.12 mg/kg, Leg 38, 0.12 mg/kg IV, saline solution, 8 h, read-out: Average serum concentration of 4 dogs): 5.74 ng/mL | concentration at 24 h ([5]; iv, 0.12 mg/kg, Leg 38, 0.12 mg/kg IV, saline solution, 24 h, read-out: Average serum concentration of 4 dogs): 2.49 ng/mL | concentration at 0 h ([5]; iv, 0.183 mg/kg, Leg 13, 0.183 mg/kg IV, saline solution, 0 h, read-out: Average serum concentration of 5 dogs): 0.64 ng/mL | concentration at 5 min ([5]; iv, 0.183 mg/kg, Leg 13, 0.183 mg/kg IV, saline solution, 5 min, read-out: Average serum concentration of 5 dogs): 477 ng/mL | concentration at 10 min ([5]; iv, 0.183 mg/kg, Leg 13, 0.183 mg/kg IV, saline solution, 10 min, read-out: Average serum concentration of 5 dogs): 756 ng/mL | concentration at 0.25 h ([5]; iv, 0.183 mg/kg, Leg 13, 0.183 mg/kg IV, saline solution, 0.25 h, read-out: Average serum concentration of 5 dogs): 1060 ng/mL

— patent US9169279B2, “Crystallization method and bioavailability” (THAR PHARMACEUTICALS, INC., priority 2009, dated 2015)
